Reference: US8263555B2 (Alcon Research, Ltd., priority 2007, dated 2012)
Several values for one entry are separate records, joined by “and”; a condition that tells them apart may be missing. Equal values may be shown once. One block for each molecule: values may come before it.

What was measured:
[1] = target: T1, BK B2-Receptor in h-TM cells (Homo sapiens, UniProt P30411); test: Antagonism of BK-induced [Ca^2+]i mobilization in h-TM cells; assay type: cell-based; conditions: read-out: Antagonist Potency (Ki; nM) vs BK (10 nM) in [Ca^2+]i Mobilization Assay, mean ± SEM or individual experiments
T1 construct: we discovered and pharmacologically characterized B2-receptor proteins in h-TM, h-CM and h-NPE cells; endogenous in cells; host or cells: primary human trabecular meshwork (h-TM) cells
T1 sequence (P30411 1-391): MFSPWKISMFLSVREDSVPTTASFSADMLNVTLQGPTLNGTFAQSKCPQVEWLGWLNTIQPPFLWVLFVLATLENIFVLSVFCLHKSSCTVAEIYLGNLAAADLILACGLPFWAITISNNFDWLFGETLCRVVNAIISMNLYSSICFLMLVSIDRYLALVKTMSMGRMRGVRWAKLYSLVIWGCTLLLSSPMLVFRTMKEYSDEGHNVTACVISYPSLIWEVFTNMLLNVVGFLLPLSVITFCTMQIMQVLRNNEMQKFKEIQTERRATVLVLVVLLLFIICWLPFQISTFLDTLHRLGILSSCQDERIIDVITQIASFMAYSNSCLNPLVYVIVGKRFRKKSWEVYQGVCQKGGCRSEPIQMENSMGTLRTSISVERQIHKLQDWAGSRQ
Experimental: (§1) Opthalmol. Vis. Res. 47: 4001-4019, 2006; Sharif et al., J. Ocular Pharmacol. Ther. 22: 291-309, 2006).
On the day of the experiment, one vial of FLIPR Calcium Assay Kit dye is re-suspended in 50 mL of a FLIPR buffer consisting of Hank's Balanced Salt Solution (HBSS), 20 mM HEPES, and 2.5 mM probenecid, pH 7.4. Cells are loaded with the calcium-sensitive dye by addition of an equal volume (50 μL) to each well of the 96-well plate and incubated with dye for 1 h at 23° C. After this time, the test compound plate and cell plate are placed in the FLIPR instrument. At the beginning of an experimental run, a signal test is performed to check the basal fluorescence signal from the dye-loaded cells and the uniformity of the signal across the plate. The basal fluorescence is adjusted between 8000-12000 counts by modifying the exposure time, the camera F-stop, or the laser power. […]
Fluorescence data are collected in real-time at 1.0 sec intervals for the first 60 secs and at 6.0 sec intervals for an additional 120 secs. […] The data are then analyzed using an automated, iterative, sigmoidal curve-fitting computer program to obtain the potency and intrinsic activities of the test agents as previously described (Sharif et al. J. Pharmacol. Exp. Ther. 286: 1094-1102, 1998; Sharif et al. Invest. Opthalmol. Vis. Sci. 39:2562-2571, 1998; Kelly et al. J. Pharmacol. Exp. Ther. 304: 238-245, 2003). […]

[2] = target: T2, BK B2-Receptor in h-CM cells (Homo sapiens, UniProt P30411); test: Antagonism of BK-induced [Ca^2+]i mobilization in h-CM cells; assay type: cell-based; conditions: read-out: Antagonist Potency (Ki; nM) vs BK (10 nM) in [Ca^2+]i Mobilization Assay, mean ± SEM or individual experiments
T2 construct: we discovered and pharmacologically characterized B2-receptor proteins in h-TM, h-CM and h-NPE cells; endogenous in cells; host or cells: primary human ciliary muscle (h-CM) cells
T2 sequence (P30411 1-391): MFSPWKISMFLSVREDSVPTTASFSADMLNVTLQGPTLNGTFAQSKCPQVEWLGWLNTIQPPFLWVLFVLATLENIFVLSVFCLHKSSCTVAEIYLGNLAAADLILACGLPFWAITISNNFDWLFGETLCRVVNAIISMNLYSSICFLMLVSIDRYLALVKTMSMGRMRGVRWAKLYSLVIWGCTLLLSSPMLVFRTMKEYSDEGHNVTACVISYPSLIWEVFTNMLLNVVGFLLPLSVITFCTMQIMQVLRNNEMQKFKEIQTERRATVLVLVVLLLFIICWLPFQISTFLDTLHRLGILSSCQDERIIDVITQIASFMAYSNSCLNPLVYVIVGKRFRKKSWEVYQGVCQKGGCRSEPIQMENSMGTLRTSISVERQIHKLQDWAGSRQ
Experimental: as §1
(§2) On the day of the experiment, one vial of FLIPR Calcium Assay Kit dye is re-suspended in 50 mL of a FLIPR buffer consisting of Hank's Balanced Salt Solution (HBSS), 20 mM HEPES, and 2.5 mM probenecid, pH 7.4. Cells are loaded with the calcium-sensitive dye by addition of an equal volume (50 μL) to each well of the 96-well plate and incubated with dye for 1 h at 23° C. After this time, the test compound plate and cell plate are placed in the FLIPR instrument. At the beginning of an experimental run, a signal test is performed to check the basal fluorescence signal from the dye-loaded cells and the uniformity of the signal across the plate. The basal fluorescence is adjusted between 8000-12000 counts by modifying the exposure time, the camera F-stop, or the laser power. Instrument settings for a typical assay are the following: laser power 0.3-0.6 W, camera F-stop F/2, and exposure time 0.4 sec.
(§3) Fluorescence data are collected in real-time at 1.0 sec intervals for the first 60 secs and at 6.0 sec intervals for an additional 120 secs. […] The data are then analyzed using an automated, iterative, sigmoidal curve-fitting computer program to obtain the potency and intrinsic activities of the test agents as previously described (Sharif et al. J. Pharmacol. Exp. Ther. 286: 1094-1102, 1998; Sharif et al. Invest. Opthalmol. Vis. Sci. 39:2562-2571, 1998; Kelly et al. J. Pharmacol. Exp. Ther. 304: 238-245, 2003). The sources of materials and reagents for such assays can be found in the references cited above.

[3] = target: T3, BK B2-Receptor in h-NPE cells (Homo sapiens, UniProt P30411); test: Antagonism of BK-induced [Ca^2+]i mobilization in immortalized h-NPE cells; assay type: cell-based; conditions: read-out: Antagonist Potency (Ki; nM) vs BK (10 nM) in [Ca^2+]i Mobilization Assay, mean ± SEM or individual experiments
T3 construct: we discovered and pharmacologically characterized B2-receptor proteins in h-TM, h-CM and h-NPE cells; endogenous in cells; host or cells: immortalized human non-pigmented ciliary epithelial (h-NPE) cells
T3 sequence (P30411 1-391): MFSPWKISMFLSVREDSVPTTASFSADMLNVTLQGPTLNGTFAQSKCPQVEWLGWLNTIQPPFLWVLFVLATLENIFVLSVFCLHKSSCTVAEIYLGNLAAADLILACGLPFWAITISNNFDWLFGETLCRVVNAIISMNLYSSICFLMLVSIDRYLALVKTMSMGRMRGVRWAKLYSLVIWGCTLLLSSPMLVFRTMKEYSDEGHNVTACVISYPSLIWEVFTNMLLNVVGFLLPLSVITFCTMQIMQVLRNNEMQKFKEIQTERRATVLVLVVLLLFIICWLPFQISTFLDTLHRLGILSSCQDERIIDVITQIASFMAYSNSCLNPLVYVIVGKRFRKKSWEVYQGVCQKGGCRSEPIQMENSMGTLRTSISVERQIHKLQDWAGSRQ
Experimental: as §1, §2, §3

[4] = target: T4, B2-receptors in h-NPE cells (Homo sapiens, UniProt P30411); test: BK- and BK-related peptide-induced [Ca^2+]i mobilization in h-NPE cells (agonist potency); assay type: cell-based; conditions: BK = 100%, read-out: Intrinsic Activity (Emax, % max relative to BK)
T4 construct: we discovered and pharmacologically characterized B2-receptor proteins in h-TM, h-CM and h-NPE cells; endogenous in cells; host or cells: immortalized human non-pigmented ciliary epithelial (h-NPE) cells
T4 sequence (P30411 1-391): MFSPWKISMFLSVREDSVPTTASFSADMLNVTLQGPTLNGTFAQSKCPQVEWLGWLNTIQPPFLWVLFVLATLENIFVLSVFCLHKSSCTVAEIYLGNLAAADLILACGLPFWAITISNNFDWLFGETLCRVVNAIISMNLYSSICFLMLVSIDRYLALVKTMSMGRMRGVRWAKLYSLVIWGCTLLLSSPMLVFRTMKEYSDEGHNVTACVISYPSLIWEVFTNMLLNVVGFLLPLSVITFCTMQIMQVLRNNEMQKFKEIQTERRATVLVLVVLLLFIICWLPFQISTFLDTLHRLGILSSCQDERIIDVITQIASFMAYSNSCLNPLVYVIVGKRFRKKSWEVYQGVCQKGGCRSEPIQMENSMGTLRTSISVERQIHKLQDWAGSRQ

[5] = system: Conscious Ocular Hypertensive Cynomolgus Monkey Eyes; test: IOP response in conscious ocular hypertensive cynomolgus monkey eyes; assay type: in vivo; conditions: for % Change in IOP (mmHg): topical ocular 300 μg, mean ± SEM
Experimental: Intraocular pressure (IOP) is determined with an Alcon Pneumatonometer (Alcon Laboratories, Inc., Fort Worth, Tex.) after light corneal anesthesia with 0.1% proparacaine. Right eyes are hypertensive as a result of laser trabeculoplasty. After a baseline IOP measurement, test compound is instilled in the right eyes only of 8-10 cynomolgus monkeys. Vehicle is instilled in the right eyes of 5-6 additional animals. […] IOP measurements are also taken on left eyes (normotensive and untreated) at each of these time points. The percent change in IOP from baseline is determined for each animal for every IOP measurement (Sharif et al. J. Ocular Pharmacol. Ther. 17: 305-317, 2001; May et al., J Pharmacol Exp Ther. 306: 301-309, 2003; Sharif et al. Invest. Opthalmol. Vis. Res. 47: 4001-4010, 2006). Group mean and standard error of the mean (SEM) are calculated for each time point. […] In cases where the compound of invention has poor ocular bioavailability, the compound may need to be administered intracamerally or intravitreally in order to observe the IOP-lowering efficacy.

B1-receptor mRNA = test: Microarray analysis of B1-receptor mRNA in TGFβ2-treated human TM cells; assay type: cell-based; conditions: Glaucomatous h-TM cells, control 0.99 ± 0.58
B2-receptor mRNA = test: Microarray analysis of B2-receptor mRNA in TGFβ2-treated human TM cells; assay type: cell-based

Molecule: CCCC[P+](CCCC)(CCCC)Cc1ccc(NC(=O)[C@H](Cc2ccc3ccccc3c2)NC(=NC2CCCCC2)NC2CCCCC2)cc1.[Cl-] [WIN-64338]
% Change in IOP (mmHg) ([5]; Dose 1/1 hr post-dose): 1.7 ± 1.6%
% Change in IOP (mmHg) ([5]; Dose 1/3 hr post-dose): −10.4 ± 2.8%
% Change in IOP (mmHg) ([5]; Dose 1/6 hr post-dose): 1.3 ± 1.3%
modulation of IOP (in words) ([5]; topically administered 300 μg, conscious cynomolgus monkeys): failed to modulate IOP

B1: TGFβ2: cytokine transforming growth factor-β2 (protein, UniProt P61812 303-414, looked up)
Transforming growth factor …: ALDAAYCFRNVQDNCCLRPLYIDFKRDLGWKWIHEPKGYNANFCAGACPYLWSSDTQHSRVLSLYNTINPEASASPCCVSQDLEPLTILYYIGKTPKIEQLSNMIVKSCKCS
Normalized level of B1-receptor mRNA (GC-RMA, mean ± SEM) (B1-receptor mRNA; after 1.5 hr): 1.54 ± 0.09
Normalized level of B1-receptor mRNA (GC-RMA, mean ± SEM) (B1-receptor mRNA; after 16 hr): 0.53 ± 0.05
Normalized level of B2-receptor mRNA (GC-RMA, mean ± SEM) (B2-receptor mRNA; Glaucomatous h-TM cells, after 1.5 hr, control 0.99 ± 0.04): 0.97 ± 0.06
Normalized level of B2-receptor mRNA (GC-RMA, mean ± SEM) (B2-receptor mRNA; Glaucomatous h-TM cells, after 16 hr, control 0.99 ± 0.04): 0.24 ± 0.06
Normalized level of B2-receptor mRNA (GC-RMA, mean ± SEM) (B2-receptor mRNA; Normal h-TM cells, after 1.5 hr, control 0.99 ± 0.06): 0.68 ± 0.05
Normalized level of B2-receptor mRNA (GC-RMA, mean ± SEM) (B2-receptor mRNA; Normal h-TM cells, after 16 hr, control 0.99 ± 0.06): 0.14 ± 0.11

Further lines, with some results ahead:

Ki [1]: 121 nM and 193 nM
Ki [2]: 35 nM and 11 nM
Molecule: CC(=O)Nc1ccc(/C=C/C(=O)NCC(=O)N(C)c2ccc(Cl)c(COc3cccc4ccc(C)nc34)c2Cl)cn1 [FR-173657]
Ki [3]: 787 nM and 788 nM

Emax [4]: 70 to 77%
Molecule: CSCC[C@H](N)C(=O)N[C@@H](CCCCN)C(=O)N[C@@H](CCCNC(=N)N)C(=O)N1CCC[C@H]1C(=O)N1CCC[C@H]1C(=O)NCC(=O)N[C@@H](Cc1ccccc1)C(=O)N[C@@H](CO)C(=O)N1CCC[C@H]1C(=O)N[C@@H](Cc1ccccc1)C(=O)N[C@@H](CCCNC(=N)N)C(=O)O [Met-Lys-BK]
